From patent publication US20260035385A1, “BENZO NITROGEN-CONTAINING HETEROAROMATIC RING DERIVATIVE AND USE THEREOF IN MEDICINE” (Xizang Haisco Pharmaceutical Co., Ltd., priority 2021, published 2026) come the findings set out here.

SMILES strings stand for the structures. Structures can show the parent of a compound that is named as a salt. Where only a bound is given, the exact number is not on record here.

Data set [1] concerns complement alternative pathway. In words: Biological Test Example 2: complement alternative pathway inhibition, IBL alternative pathway kit, serum from healthy volunteers. It counts as biochemical, human. The conditions noted are these: LPS-coated plate, 37 °C 1 h, read-out: IC50 for inhibiting alternative pathway. As for the experimental part: The inhibitory effect of the compounds on the complement alternative pathway was detected using the IBL alternative pathway kit (COMPL AP330 RUO). Serum from healthy volunteers was collected and 1 portion was diluted with a buffer of 20 mM EDTA in gelatin (0.15 mM CaCl2, 141 mM NaCl, 4.5 mM MgCl2, 4.2 mM HEPES, and 0.1% gelatin at pH 7.4) to 50% (v/v), and 1 portion was diluted to 50% (v/v) with a buffer of 20 mM EGTA in gelatin. The compounds were prepared in DMSO to a working solution 100 times the final concentration. Before use, 50% of the above serum was diluted 1/18 with the AP diluent in the kit. 1 part of the compound working solution (v/v) or DMSO (positive control PC) was added to 99 parts of the diluted serum containing EGTA for pretreatment for 30 min, and 1 part of DMSO (v/v) was added to 99 parts of the diluted serum containing EDTA, as negative control (NC). The serum pretreated with the above compounds (or DMSO) was added at […] to the LPS-coated 96-well plate, incubated at 37° C. for 1 h, and the plate was washed 3 times with washing solution in the kit; the conjugated chromogenic substrate was added according to the instruction in the kit, and the absorbance was read at 405 nm with a microplate reader. The inhibitory activity of the compounds on alternative pathway was calculated using the following formula.
OD^CPD was the OD value when the inhibitor was added, OD^NC was the OD value of the negative control, and OD^PC was the OD value of the positive control.
Graphpad was used to perform nonlinear regression on the final concentrations and inhibition rates of the compounds to obtain the IC50 of the compounds for inhibiting the alternative pathway.

Another data set has as its target FB (Homo sapiens, UniProt P00751). In words: biochemical.
A further data set can be described thus: Caco2 permeability test. It counts as in vitro ADME. Conditions: human, pH 7.4, Caco-2 monolayer, 2 μM, 2 h. As for the experimental part:
(§1) The experiment used a monolayer of Caco-2 cells incubated in triplicate in a 96-well Transwell plate. […] Acetonitrile containing internal standard was then added to precipitate the protein. […] The integrity of the cell monolayer after 2 h of incubation was assessed by leakage of Lucifer Yellow.

In a further data set the test system is Caco-2 cells. Nature of the data set: Caco2 permeability test. It counts as in vitro ADME. The conditions noted are these: Caco2, compared with the trifluoroacetate of LNP023, in words. As to the method:
as §1
Background: Caco-2 monolayers are a common model of the intestinal barrier.

Data set [2] is described as follows: Pharmacokinetic test in rats. It counts as in vivo, SD rats. The conditions noted are these: for maximum plasma concentration in rats / oral bioavailability in rats / time to peak: compared with LNP023, in words; for bioavailability / Cmax / Tmax / half-life / AUC(0-t): male, SD, rat, plasma, po, i.g. (10 mg/kg); for bioavailability / Cmax / Tmax / half-life / AUC(0-t) / time to peak: rats; for AUC(0-t): read-out: AUC0-24 h. As for the experimental part:
Test objective: In this experiment, a single dose of each test compound was administered to SD rats intravenously and intragastrically, and the concentrations of the test compounds in plasma of rats were measured to evaluate the pharmacokinetic characteristics of the test compounds in rats.
Experimental animals: male SD rats, 200-250 g, 6-8 weeks old, 6 rats/compound, purchased from Chengdu Ddossy Experimental Animals Co., Ltd.
Experimental method: on the day of the test, 6 SD rats were randomly grouped according to their body weight. The animals were fasted with water available for 12 to 14 hours one day before the administration of a test compound, and were fed 4 hours after the administration.
Sampling: Before and after the administration, 0.15 mL of blood sample was drawn from the orbit under isoflurane anesthesia, and placed in an EDTAK2 centrifuge tube. Centrifugation was carried out at 5000 rpm at 4° C. for 10 min, and the plasma was collected.
Time points for plasma collection in IV&PO group: 0, 5 min, 15 min, 30 min, 1 h, 2 h, 4 h, 6 h, 8 h, and 24 h.
(§2) Before analysis and detection, all samples were stored at −60° C. The samples were analyzed quantitatively by LC-MS/MS.

Data set [3] can be described thus: Pharmacokinetic test of dogs. The conditions noted are these: male, beagle, dog, plasma, po, i.g. (5 mg/kg). The format is in vivo. As to the method: Test objective: In this experiment, a single dose of test compounds was administered to beagle dogs intravenously and intragastrically, and the concentrations of the test compounds in plasma of the beagle dogs were measured to evaluate pharmacokinetic characteristics of the test compounds in the beagle dogs.
Experimental animals: Male beagle dogs, 8-11 kg, 1-3 years old, 6 dogs/compound. purchased from Beijing Marshall Biotechnology Co. Ltd.
Experimental method: on the day of the test, 6 beagle dogs were randomly grouped according to their body weights. The animals were fasted with water available for 14 to 18 hours one day before the administration of a test compound, and were fed 4 hours after the administration.
Sampling: Before and after the administration, 1.0 mL of blood was taken from the jugular veins or limb veins, and placed in an EDTAK2 centrifuge tube. Centrifugation was carried out at 5000 rpm at 4° C. for 10 min, and the plasma was collected.
(§3) Time points for plasma collection in IV&PO group: 0, 5 min, 15 min, 30 min, 1 h, 2 h, 4 h, 6 h, 8h, 10 h, 12h, and 24 h.
as §2

Data set [4] is described as follows: Pharmacokinetic experiment in monkeys. The conditions noted are these: for bioavailability in monkeys / oral exposure in monkeys: compared with the trifluoroacetate of LNP023, in words; for bioavailability / AUC(0-t): male, cynomolgus monkey, plasma, po, monkeys, i.g. (5 mg/kg). It counts as in vivo, cynomolgus monkeys. As to the method: Test objective: In this experiment, a single dose of test compounds was administered to cynomolgus monkeys intravenously and intragastrically, and the concentrations of the test compounds in plasma of the monkeys were measured to evaluate pharmacokinetic characteristics of the test compounds in the monkeys.
Experimental animals: Male cynomolgus monkeys, 3-5 kg, 3-6 years old, 6 monkeys/compound. Purchased from Suzhou Xishan Biotechnology Inc.
Experimental method: on the day of the test, 6 monkeys were randomly grouped according to their body weights. The animals were fasted with water available for 14 to 18 hours one day before the administration of a test compound, and were fed 4 hours after the administration.
Sampling: before and after the administration, 1.0 mL of blood was taken from the limb veins, and placed in an EDTAK2 centrifuge tube. Centrifugation was carried out at 5000 rpm at 4° C. for 10 min, and the plasma was collected.
as §3, §2

Sequence of FB (P00751 260-764 limits assumed): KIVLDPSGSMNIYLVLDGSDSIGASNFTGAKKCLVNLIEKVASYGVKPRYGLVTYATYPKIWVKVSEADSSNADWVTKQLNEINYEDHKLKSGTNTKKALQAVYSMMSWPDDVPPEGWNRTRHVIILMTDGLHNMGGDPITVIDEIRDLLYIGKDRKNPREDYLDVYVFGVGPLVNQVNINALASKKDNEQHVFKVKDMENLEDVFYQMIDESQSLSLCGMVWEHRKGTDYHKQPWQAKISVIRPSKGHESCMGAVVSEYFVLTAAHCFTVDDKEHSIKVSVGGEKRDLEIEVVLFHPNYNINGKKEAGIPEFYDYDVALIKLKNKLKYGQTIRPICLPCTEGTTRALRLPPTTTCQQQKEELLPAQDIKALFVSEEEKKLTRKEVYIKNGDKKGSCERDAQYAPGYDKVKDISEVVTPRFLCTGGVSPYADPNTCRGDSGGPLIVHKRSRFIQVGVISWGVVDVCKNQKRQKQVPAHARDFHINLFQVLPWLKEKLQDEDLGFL
Sequence of FB (Q91132 23-649 partner limits assumed): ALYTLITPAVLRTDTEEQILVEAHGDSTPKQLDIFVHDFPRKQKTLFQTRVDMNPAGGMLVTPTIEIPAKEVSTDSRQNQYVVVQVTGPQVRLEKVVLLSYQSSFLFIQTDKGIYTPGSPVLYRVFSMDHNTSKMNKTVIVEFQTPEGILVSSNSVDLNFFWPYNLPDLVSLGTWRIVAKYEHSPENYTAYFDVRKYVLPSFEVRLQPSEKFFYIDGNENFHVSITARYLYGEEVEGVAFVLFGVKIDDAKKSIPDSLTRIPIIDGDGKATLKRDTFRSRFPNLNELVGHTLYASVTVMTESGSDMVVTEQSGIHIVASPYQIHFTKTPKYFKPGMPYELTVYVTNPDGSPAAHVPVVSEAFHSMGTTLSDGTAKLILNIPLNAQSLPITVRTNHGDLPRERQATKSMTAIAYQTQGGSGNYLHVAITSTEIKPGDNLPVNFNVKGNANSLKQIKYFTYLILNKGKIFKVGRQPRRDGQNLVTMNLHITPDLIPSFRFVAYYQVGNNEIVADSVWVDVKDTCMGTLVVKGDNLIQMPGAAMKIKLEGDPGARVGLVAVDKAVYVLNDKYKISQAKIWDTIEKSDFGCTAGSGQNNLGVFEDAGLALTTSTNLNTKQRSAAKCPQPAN
Sequence of FB (Q91132 733-984 partner limits assumed): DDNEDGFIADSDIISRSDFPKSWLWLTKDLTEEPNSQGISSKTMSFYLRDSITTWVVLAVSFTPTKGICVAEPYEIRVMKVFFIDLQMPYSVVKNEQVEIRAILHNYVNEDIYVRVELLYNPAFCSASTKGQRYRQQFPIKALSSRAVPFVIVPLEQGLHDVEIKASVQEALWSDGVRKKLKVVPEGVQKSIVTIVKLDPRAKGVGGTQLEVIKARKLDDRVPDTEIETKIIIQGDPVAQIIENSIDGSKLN
Sequence of FB (Q91132 1264-1642 partner limits assumed): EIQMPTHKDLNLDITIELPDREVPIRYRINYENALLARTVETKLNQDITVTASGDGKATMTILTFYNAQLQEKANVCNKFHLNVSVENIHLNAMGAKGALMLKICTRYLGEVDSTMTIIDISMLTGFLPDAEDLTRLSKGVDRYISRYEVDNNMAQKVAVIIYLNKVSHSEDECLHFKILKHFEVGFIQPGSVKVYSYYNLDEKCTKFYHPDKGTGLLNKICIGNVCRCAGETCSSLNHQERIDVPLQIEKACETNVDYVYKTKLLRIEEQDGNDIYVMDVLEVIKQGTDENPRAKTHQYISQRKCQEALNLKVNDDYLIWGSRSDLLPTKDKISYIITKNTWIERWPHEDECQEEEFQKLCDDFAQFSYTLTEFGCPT
Protocol for FB: CVF (1 μM), FB (1 μM) and FD (300 nM) were incubated in Assay buffer (pH=7.4, 10 mM MgCl2, 0.05% (m/v), CHAPS) for 3 h at room temperature, so that all FB was cleaved into Baby FD and CVF:Bb complex was generated. SDS-PAGE analysis confirmed that FB was completely hydrolyzed, that is, the concentration of the generated CVF:Bb complex was 300 nM. The CVF:Bb complex was diluted to a concentration of 5 nM using Assay buffer and preincubated with different concentrations of the compounds in assay buffer for 1 h at room temperature. C3 was added to a final concentration of 1 μM to start the enzymatic reaction. After reacting at room temperature for 1 h, protease inhibitor mixture (Roche Complete Inhibitor Tablets) was added to stop the enzyme reaction. Human C3a ELISA kit (Hycult HK354-01) was used to determine the generation of C3a according to the instruction in the kit. The FB activity inhibition rate was plotted against the inhibitor concentration, and graphpad nonlinear regression was used to calculate the IC50 value.

Take `COc1cc(C)c2[nH]ccc2c1CN1CCC(C2CCCC2)C[C@H]1c1ccc(C(=O)O)cc1` (single isomer, unassigned) [Ammonium of compound 11 (diastereomer 1)]: the IC50 (as a rule, the concentration needed to halve the response being measured) in data set [1] is < 200 nM.

Consider `COc1cc(C)c2[nH]ccc2c1CN1CCN(C2CC2)CC1c1ccc(C(=O)O)cc1` (single isomer, unassigned) [Compound 27-1, 4-(4-cyclopropyl-1-((5-methoxy-7-methyl-1H-indol-4-yl)methyl)piperazin-2-yl)benzoic acid], for which the IC50 in data set [1] is < 200 nM.

Take `COc1cc(C)c2[nH]ccc2c1CN1CCC(C2CCC2)C[C@H]1c1ccc(C(=O)O)cc1` (single isomer, unassigned) [Formate of [compound 8 (diastereomer 1)]]: the IC50 in data set [1] is < 200 nM.

Take `COCC1CCN(Cc2c(OC)cc(C)c3[nH]ccc23)[C@H](c2ccc(C(=O)O)cc2)C1` (single isomer, unassigned) [Trifluoroacetate of compound 1-a]: the IC50 in data set [1] was < 200 nM; at FB it was < 500 nM.

On to `COc1cc(C)c2[nH]ccc2c1CN1CCC2(CCCO2)C[C@H]1c1ccc(C(=O)O)cc1` (single isomer, unassigned) [Trifluoroacetate of compound 2-a (diastereomer 1)], for which the IC50 in data set [1] is < 200 nM.

For the molecule `[2H]C([2H])([2H])Oc1cc(C)c2[nH]ccc2c1CN1CCC2(CCCO2)C[C@H]1c1ccc(C(=O)O)cc1` (single isomer, unassigned) [Trifluoroacetate of compound 6], the IC50 in data set [1] was < 200 nM; at FB it was < 500 nM.

Regarding `COc1cc(C)c2[nH]ccc2c1CN1CCC(C2CC2)=C[C@H]1c1ccc(C(=O)O)cc1` [Ammonium salt of compound 12, (S)-4-(4-cyclopropyl-1-((5-methoxy-7-methyl-1H-indol-4-yl)methyl)-1,2,5,6-tetrahydropyridin-2-yl)benzoic acid], in data set [1], the IC50 is < 200 nM.

As to `C#C[C@H]1CCN(Cc2c(OC)cc(C)c3[nH]ccc23)[C@H](c2ccc(C(=O)O)cc2)C1` [Compound 10 (diastereomer 1), 4-((2S)-4-ethynyl-1-((5-methoxy-7-methyl-1H-indol-4-yl)methyl)piperidin-2-yl)benzoic acid], in “Caco2 permeability test”, the efflux ratio (commonly the permeability from basolateral to apical divided by that in the opposite direction, in the common usage) at 2 h, 2 μM amounted to 4.62; the Papp A→B – broadly, how fast a substance crosses the layer from the apical side – at 2 h, 2 μM is 2.62 ×10⁻⁶ cm/s; the Papp B→A (commonly the apparent permeability from the basolateral to the apical side of a cell layer) at 2 h, 2 μM was found to be 12.1 ×10⁻⁶ cm/s. For the same molecule, in the data set with Caco-2 cells, the efflux ratio result was “lower” and the permeability entry is given as “better”. Moreover, in data set [2], the “maximum plasma concentration in rats” value was “higher”; the “oral bioavailability in rats” value is listed as “higher”; the bioavailability (in general, dose-corrected exposure relative to a reference, in per cent) came out at 57.8%; the highest level (Cmax) was 2240 ng/mL. In data set [2], the Tmax (as a rule, the time from dosing to the highest level) was 20 min; the half-life (in general, the time in which the quantity being followed falls by half) was 249 min; the AUC(0-t) is 7920 ng·h/mL; the time to peak entry was “shorter”. In data set [3], this molecule had a bioavailability of 56.2%, an AUC(0-t) of 25300 ng·h/mL and a half-life of 533 min. The IC50 in data set [1] was < 200 nM.

For the molecule `C#CCC1CCN(Cc2c(OC)cc(C)c3[nH]ccc23)[C@H](c2ccc(C(=O)O)cc2)C1` (stereo partly drawn) [Compound 13, 4-((2S)-1-((5-methoxy-7-methyl-1H-indol-4-yl)methyl)-4-(prop-2-yn-1-yl)piperidin-2-yl)benzoic acid], in data set [4], the bioavailability in monkeys entry was “higher”, the “oral exposure in monkeys” value was “higher”, the bioavailability came to 70.5 ± 4.5% and the AUC(0-t) was 16600 ± 1070 ng·h/mL. In the data set “Caco2 permeability test”, the efflux ratio at 2 h, 2 μM was 8.18; the Papp A→B at 2 h, 2 μM was 2.55 ×10⁻⁶ cm/s; the basolateral-to-apical permeability (Papp B→A) at 2 h, 2 μM is 20.9 ×10⁻⁶ cm/s. In addition, in the data set with Caco-2 cells, the efflux ratio result is recorded as “lower” and the permeability result is on record as “better”. In data set [2], the “maximum plasma concentration in rats” value is recorded as “higher”, the “oral bioavailability in rats” value is recorded as “higher”, the bioavailability worked out at 65.5% and the peak level (Cmax) was 1600 ng/mL. In data set [2], the Tmax worked out at 35 min, the half-life is 205 min, the AUC(0-t) was found to be 6030 ng·h/mL and the time to peak entry is given as “shorter”. Besides, in data set [3], the bioavailability is > 60%, the AUC(0-t) turned out to be 36100 ng·h/mL and the half-life is 436 min. For the same molecule, the IC50 in data set [1] was < 200 nM.

In the case of `COCCO[C@H]1CCN(Cc2c(OC)cc(C)c3[nH]ccc23)[C@H](c2ccc(C(=O)O)cc2)C1` [Trifluoroacetate of compound 3, 4-[(2S,4S)-1-[(5-methoxy-7-methyl-1H-indol-4-yl)methyl]-4-(2-methoxyethoxy)piperidin-2-yl]benzoic acid], the IC50 in data set [1] is < 200 nM.

Turning to `COc1cc(C)c2[nH]ccc2c1CN1CC[C@H](C2CC2)C[C@H]1c1ccc(C(=O)O)cc1` [Trifluoroacetate of compound 5-1 (diastereomer 2), 4-((2S)-4-cyclopropyl-1-((5-methoxy-7-methyl-1H-indol-4-yl)methyl)piperidin-2-yl)benzoic acid], the IC50 in data set [1] is < 200 nM.

For `[2H]C([2H])([2H])Oc1cc(C)c2[nH]ccc2c1CN1CC[C@H](C2CC2)C[C@H]1c1ccc(C(=O)O)cc1` [Trifluoroacetate of compound 7 (diastereomer 1), 4-((2S)-4-cyclopropyl-1-((5-(methoxy-d3)-7-methyl-1H-indol-4-yl)methyl)piperidin-2-yl)benzoic acid], in data set [4], the bioavailability in monkeys entry was “higher”, the “oral exposure in monkeys” value is reported as “higher”, the bioavailability amounted to 98.3 ± 7.5% and the AUC(0-t) stood at 48300 ± 3660 ng·h/mL. Besides, in “Caco2 permeability test”, the Papp A→B at 2 h, 2 μM is 1.77 ×10⁻⁶ cm/s and the Papp B→A at 2 h, 2 μM worked out at 19.4 ×10⁻⁶ cm/s. Also, the permeability entry in the data set on Caco-2 cells is on record as “better”. Moreover, in data set [2], the “maximum plasma concentration in rats” value is reported as “higher”, the “oral bioavailability in rats” value is on record as “higher”, the bioavailability came to 72.1% and the Cmax (commonly the maximum level reached in the sampled fluid or tissue) was 1130 ng/mL. Besides, in data set [2], the half-life was 192 min and the AUC(0-t) amounted to 9160 ng·h/mL. In addition, in data set [3], the bioavailability was 75.5%, the AUC(0-t) amounted to 45400 ng·h/mL and the half-life is 906 min. In data set [1], the IC50 was < 200 nM.
